Where no end group is shown, it is not given here.
Key:
[1] = tested on: P. aeruginosa (ATCC 27883); assay: MIC, standard microtiter dilution (CLSI); assay type: cell-based, Pseudomonas aeruginosa; conditions: broth microdilution (CLSI), CAMHB, 37 °C, 24 h
How it was run: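 In this CLSI-recommended assay, peptides were serially diluted twofold and combined with bacteria at 10^6 CFU/mL in cation-adjusted Mueller Hinton Broth.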

[2] = CD spectroscopy, helicity; assay type: physicochemical; parameters: key to Δ[θ]222 induced by TFE / Δ[θ]222 induced by Liposomes: mean residue molar ellipticity, mdeg cm2/(dmol × res); conditions: for [θ]222 mean residue molar ellipticity, TFE / [θ]222 mean residue molar ellipticity, Liposomes / [θ]222 mean residue molar ellipticity, PBS: CD at 222 nm, 25 °C; for [θ]222 mean residue molar ellipticity, TFE: aqueous buffer containing 50% TFE; for [θ]222 mean residue molar ellipticity, Liposomes / Δ[θ]222 induced by Liposomes: bacterial membrane mimicking liposomes; for [θ]222 mean residue molar ellipticity, Liposomes: peptide:lipid molar ratio 1:1.05; for [θ]222 mean residue molar ellipticity, PBS: phosphate buffer saline pH 7.0; for Δ[θ]222 induced by TFE / Δ[θ]222 induced by Liposomes: difference to PBS; for Δ[θ]222 induced by TFE: 50% TFE; for % of helicity induced by TFE: increase in molar ellipticity at 222 nm in the presence of 50% TFE; for % of helicity induced by Liposomes: increase in molar ellipticity at 222 nm in the presence of liposomes;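 on % of helicity induced by Liposomes: share of the total helicity with liposomes gained over the same peptide in PBS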;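 on % of helicity induced by TFE: share of the total helicity in TFE gained over the same peptide in PBS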
How it was run: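 Spectra recorded at 25 °C, 1 mm cell, 190–260 nm, averaged over three scans in 10 mM sodium phosphate (pH 7.2), 50% TFE, or bacterial-mimic liposomes (75 μM lipid), baseline-subtracted. Mean residue molar ellipticity at 222 nm derived; % helicity induced is the percentage increase at 222 nm in TFE or liposomes.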

[3] = Calcein dye leakage assay; conditions: after 100 min, 10% Triton X-100 = 100%, triplicate
Protocol: The calcein dye leakage assay was conducted using the large unilamellar vesicles (LUVs) composed of 1,2-dioleoyl-sn-glycero-3-phosphocholine (DOPC) and 1,2-dioleoyl-sn-glycero-3-phosphoglycerol (DOPG) to mimic the bacterial membrane (DOPC/DOPG, 7:3, w/w) or mammalian membrane (DOPC/cholesterol, 10:1, w/w), as we described previously.[18] At various concentrations (5, 10, 20, 30, and 50 μg/mL) test peptides 8a and 8b (50 μL) mixed with liposome suspension (50 μL), and fluorescence intensity was read every 10 min for 100 min at an excitation wavelength of 490 nm and an emission wavelength of 520 nm on a SpectraMax M5 multi-mode microplate reader. Considering calcein release from liposomes treated with a 10% solution (w/v) of Triton X-100 as 100%, the apparent percentage of dye leakage was calculated using the following formula [drawing 2] where F is the intensity measured at a given peptide concentration, F0 is the background intensity of the liposome sample, and Ft is the intensity after lysis induced by Triton X-100.

[4] = Relative hydrophobicity as RP-HPLC retention time; assay type: physicochemical; conditions: chromatographic, Phenomenex Luna C18 4 μm 150 × 4.6 mm, linear AB gradient 1% acetonitrile/min, 0.3 mL/min, A water 0.1% TFA, B acetonitrile 0.1% TFA, 25 °C
How it was run: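 Peptides run by reverse-phase analytical HPLC on a C18 column (4 μm, 150 × 4.6 mm). Mobile phase water with 0.1% TFA (A) and acetonitrile with 0.1% TFA (B); hydrophobicity taken as retention time.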

[5] = 10^6 CFU/mL, highest MIC of three independent experiments in triplicate
[6] = bacterial membrane mimicking LUVs
[7] = mammalian membrane mimicking LUVs

| Compound | MIC, P. aeruginosa (ATCC 27883) [1, 5] | MIC, P. aeruginosa (ATCC 27883) ([1]; value in parentheses (μM)) | [θ]222 mean residue molar ellipticity, TFE [2] | [θ]222 mean residue molar ellipticity, Liposomes [2] | [θ]222 mean residue molar ellipticity, PBS [2] | Δ[θ]222 induced by TFE [2] | Δ[θ]222 induced by Liposomes [2] | % of helicity induced by TFE [2] | % of helicity induced by Liposomes [2] | calcein dye leakage, 5 μg/mL [3, 6] | calcein dye leakage, 50 μg/mL [3, 7] | tR, RP-HPLC retention time (measure of overall hydrophobicity) [4] | calcein dye leakage, 50 μg/mL [3, 6] |
| --- | --- | --- | --- | --- | --- | --- | --- | --- | --- | --- | --- | --- | --- |
| KWLKKWLKWWKK-NH2 [8b] | 6.2 µg/mL | 3.53 µM | -15887 mdeg cm2/(dmol × res) | -19313 mdeg cm2/(dmol × res) | -6387 mdeg cm2/(dmol × res) | -9499 | -12926 | 59.79% | 66.92% | approximately 30% | 10% | 33.41 min |  |
| RWIRRWIRWWRR-NH2 [7a] | 6.2 µg/mL | 3.22 µM | -8205 mdeg cm2/(dmol × res) | -11307 mdeg cm2/(dmol × res) | -2471 mdeg cm2/(dmol × res) | -5734 | -8836 | 69.88% | 78.14% |  |  | 33.93 min |  |
| RWLRRWLRWWRR-NH2 [8a] | 12.5 µg/mL | 6.49 µM | -10811 mdeg cm2/(dmol × res) | -15616 mdeg cm2/(dmol × res) | -4794 mdeg cm2/(dmol × res) | -6017 | -10822 | 55.65% | 69.30% | approximately 30% | 19% | 34.99 min |  |
| CCCCCCCCCC(=O)N[C@@H](Cc1c[nH]c2ccccc12)C(=O)N[C@H](CC(N)=O)C(=O)N[C@@H](CC(=O)O)C(=O)N[C@@H]1C(=O)NCC(=O)N[C@@H](CCCN)C(=O)N[C@@H](CC(=O)O)C(=O)N[C@H](C)C(=O)N[C@@H](CC(=O)O)C(=O)NCC(=O)N[C@H](CO)C(=O)N[C@@H]([C@H](C)CC(=O)O)C(=O)N[C@@H](CC(=O)c2ccccc2N)C(=O)O[C@@H]1C [daptomycin, reference compound] |  |  |  |  |  |  |  |  |  |  | around 7% |  | 42% |
| KWIKKWIKWWKK-NH2 [7b] | 6.2 µg/mL | 3.53 µM | -10800 mdeg cm2/(dmol × res) | -12345 mdeg cm2/(dmol × res) | -3016 mdeg cm2/(dmol × res) | -7784 | -9328 | 72.06% | 75.56% |  |  | 32.23 min |  |

— publication PMC9841524, “Structure-Based Rational Design of Small α-Helical Peptides with Broad-Spectrum Activity against Multidrug-Resistant Pathogens” (Journal of Medicinal Chemistry, 2022)
